{"source": "patent EP0637448A1", "about": "“Combinations of glycinamide or N-acetylglycinamide with analgesic compounds” (ISCOFAR SAS DI PAOLO E. GHIRARDI, priority 1993, dated 1995)", "key": {"[1]": {"tested_on": "EDEMA FROM CARRAGEENIN", "test": "carrageenin edema test", "type": "in vivo, mouse", "settings": "for ED50: NSAID alone, per os 60 minutes before carrageenin, edema volume after 3 hours, read-out: ED₅₀ ± S.D. (dose reducing edema by 50%)"}, "[2]": {"tested_on": "mouse", "test": "acute oral toxicity (LD50)", "type": "in vivo", "settings": "orally"}, "[3]": {"tested_on": "phenylquinone induced writhing", "test": "writhing test (phenylquinone-induced abdominal contractions)", "type": "in vivo, mouse", "settings": "for time of maximum effect after administration: ED50 dose given orally, effect as a function of time; for ED50: Mus musculus, read-out: ED₅₀ ± D.5 (anti-writhing action)", "protocol": "In order to experimentally test the above analgesic effect, which involves the µ and K type opiate receptors, the writhing test (literally: \"induced abdominal contracture test\") with […] of phenylquinone or paraphenylbenzoquinone (0.02% in 5% ethanol), has been choosed. Since phenylquinone is a photosensitive, said solution was kept dark bottle at 37 °C with continuous stirring. Groups of animals were treated orally with different doses of glycinamide at various time intervals before phenylquinone being administered by intraperitoneal way. For each experimental point 3 groups of 10 animals each were tested. After the phenylquinone administration, the animals were placed in glass cylinders and the abdominal contractions were recorded for 20 minutes starting form the fifth minute following the intraperitoneal administration of phenylquinone. As an average, about 50±15 abdominal contractions were recorded during the surveying time. The choice of phenylquinone as the writhing inductor is justified by the greater qualitative constance and higher number of contractions obtainable when compared with other inductors such as acetylcholine, acetic acid, ethacrynic acid, air, etc. [table]"}, "[4]": {"test": "acute oral toxicity (LD50)", "type": "in vivo", "settings": "in vivo, po; mouse, orally; read-out: LD₅₀"}, "[5]": {"settings": "substance alone, orally, mouse, phenylquinone 2 mg/kg i.p."}}, "note": "Like-named read-outs stand apart in the source and are kept apart here."}
{"smiles": "NCC(N)=O", "note": "[Glycinamide]", "values": [{"measurement": "enhancement of the effect of sodium diclofenac", "setting": "[1]; 50 mg/kg of glycinamide, based on the carrageenin edema test", "value": "at least 2.8 times"}, {"measurement": "anti-edema effect", "setting": "[1]; glycinamide alone, 50 mg/kg orally 50 minutes before carrageenin, mouse", "value": "does not develop an anti-edema effect"}, {"measurement": "LD₅₀", "setting": "[2]", "value": "higher than 2 g/Kg"}, {"measurement": "enhancement of the antiphlogistic and visceral peripheral analgesic effect of sodium diclofenac", "setting": "[3]; 25 mg/kg of glycinamide, based on writhing test", "value": "at least 2.5 times"}, {"measurement": "time of maximum effect after administration", "setting": "[3]; mouse", "value": "about 13 minutes"}, {"measurement": "ED50", "setting": "[3]; [5]", "value": "~82.9", "unit": "mg/kg"}, {"measurement": "reduction (anti-writhing action, peak)", "setting": "[3]; orally administered dose of 200 mg/kg, mouse", "value": 81.3, "unit": "%"}]}
{"smiles": "CC(=O)NCC(N)=O", "note": "[N-acetylglycinamide]", "values": [{"measurement": "LD50", "setting": "[4]", "value": "> 2000", "unit": "mg/kg"}, {"measurement": "peripheral analgesic activity compared with glycinamide", "setting": "[3]; mouse, in vivo", "value": "shared both qualitatively and quantitatively"}]}
{"smiles": "COc1ccc2c(c1)c(CC(=O)O)c(C)n2C(=O)c1ccc(Cl)cc1", "note": "[Indomethacin]", "values": [{"measurement": "ED50", "setting": "[1]; mouse", "value": "84 ± 12", "unit": "mg/kg"}]}
{"smiles": "CC(=O)Oc1ccccc1C(=O)O", "note": "[Acetylsalicylic acid]", "values": [{"measurement": "ED50", "setting": "[1]; mouse", "value": "5.1 ± 0.8", "unit": "mg/kg"}]}
{"smiles": "NCC(=O)O", "note": "[glycine]", "values": [{"measurement": "enhancement of the action of peripheral analgesic drugs", "setting": "[3]; test not given", "value": "does not produce"}]}
{"smiles": "O=C(O)Cc1ccccc1Nc1c(Cl)cccc1Cl", "note": "[Sodium diclofenac]", "values": [{"measurement": "ED50", "setting": "[1]; mouse", "value": "10 ± 3.6", "unit": "mg/kg"}, {"measurement": "time of maximum effect after administration", "setting": "[3]; mouse", "value": 45, "unit": "min"}, {"measurement": "ED50", "setting": "[3]; + Glycinamide HCl 15 mg/kg orally 13 minutes before testing, mouse", "value": "1.86 ± 1.15", "unit": "mg/kg"}, {"measurement": "ED50", "setting": "[3]; + Glycinamide HCl 25 mg/kg orally 13 minutes before testing, mouse", "value": "1.12 ± 1.2", "unit": "mg/kg"}, {"measurement": "ED50", "setting": "[3]; + Glycinamide HCl 50 mg/kg orally 13 minutes before testing, mouse", "value": "1.05 ± 1.31", "unit": "mg/kg"}, {"measurement": "ED50", "setting": "[3]; + Glycinamide HCl 75 mg/kg orally 13 minutes before testing, mouse", "value": "1.02 ± 1.26", "unit": "mg/kg"}, {"measurement": "ED50", "setting": "[3]; + Glycinamide HCl 100 mg/kg orally 13 minutes before testing, mouse", "value": "1.28 ± 1.16", "unit": "mg/kg"}, {"measurement": "ED50", "setting": "[3]; [5]", "value": "2.93 ± 1.43", "unit": "mg/kg"}]}
{"smiles": "CC(C)Cc1ccc(C(C)C(=O)O)cc1", "note": "(stereo not drawn) [Ibuprofen]", "values": [{"measurement": "ED50", "setting": "[1]; mouse", "value": "20 ± 2.4", "unit": "mg/kg"}]}
